Experimental findings from patent US20250186450A1, “COMBINATION THERAPY COMPRISING DGK INHIBITORS and PD-1/PD-L1 INHIBITORS” (Incyte Corporation, priority 2023, published 2025) are described below.

Molecules are shown by their SMILES. pIC50: −log10 of the molar value. A value given as a limit tells only on which side of the number the result lay.

Broadly, the pIC50 is the negative decadic logarithm of the IC50, by convention in mol/L.

One test deals with DGKζ (Homo sapiens (Human), UniProt Q13574). Put plainly: In vitro DGKζ inhibition assay (ADP-Glo). Type of test: biochemical. Particulars: 0.4 nM DGKζ, 30 μM ATP, 20 μM DLG. The protocol: The DGKα and DGKζ biochemical reactions were performed using His-tagged human recombinant enzymes (Signal Chem, DGKα, #D21-10BH; DGKζ, #D30-10H)) and DLG (Dilauroyl-sn-glycerol) lipid substrate (Signal Chem, #D430-59). ADP-Glo assay was performed using ADP-Glo™ kinase Assay kit (Promega, #V9104). The reactions were carried out in assay buffer containing 40 mM Tris, pH 7.5, 0.1% CHAPS, 0.1% Prionex, 40 mM NaCl, 5 mM MgCl2, 1 mM CaCl2, and 1 mM DTT. DGKα reactions contained 0.1 nM DGKα, 50 μM ATP, and 20 μM DLG. And DGKζ reactions contained 0.4 nM DGKζ, 30 μM ATP, and 20 μM DLG.
Sequence of DGKζ (Q13574 whole entry): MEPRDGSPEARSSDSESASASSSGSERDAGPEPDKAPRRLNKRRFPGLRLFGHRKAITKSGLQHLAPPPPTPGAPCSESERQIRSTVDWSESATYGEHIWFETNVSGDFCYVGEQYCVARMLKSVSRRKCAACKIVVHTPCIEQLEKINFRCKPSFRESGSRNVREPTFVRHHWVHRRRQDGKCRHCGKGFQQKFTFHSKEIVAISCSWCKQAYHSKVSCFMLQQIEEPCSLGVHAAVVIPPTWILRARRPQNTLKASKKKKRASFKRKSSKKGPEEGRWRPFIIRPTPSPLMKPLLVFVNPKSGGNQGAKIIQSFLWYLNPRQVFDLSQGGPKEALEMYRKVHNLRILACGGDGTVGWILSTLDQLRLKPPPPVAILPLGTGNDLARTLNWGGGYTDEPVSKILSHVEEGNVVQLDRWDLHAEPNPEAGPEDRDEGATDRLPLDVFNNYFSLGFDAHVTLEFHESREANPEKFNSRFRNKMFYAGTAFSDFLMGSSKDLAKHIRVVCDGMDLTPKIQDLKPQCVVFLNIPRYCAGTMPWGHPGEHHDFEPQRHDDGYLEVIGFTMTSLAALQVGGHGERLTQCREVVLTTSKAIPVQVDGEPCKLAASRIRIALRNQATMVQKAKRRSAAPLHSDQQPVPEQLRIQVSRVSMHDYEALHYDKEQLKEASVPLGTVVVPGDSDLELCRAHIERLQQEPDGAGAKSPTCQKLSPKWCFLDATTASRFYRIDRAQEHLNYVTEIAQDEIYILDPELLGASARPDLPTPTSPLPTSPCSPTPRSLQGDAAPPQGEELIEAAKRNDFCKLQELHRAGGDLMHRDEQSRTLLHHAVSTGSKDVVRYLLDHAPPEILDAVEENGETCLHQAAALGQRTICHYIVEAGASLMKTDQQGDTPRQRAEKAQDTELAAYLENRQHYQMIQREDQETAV
For compound inhibition studies, 40 nL test compound in DMSO was added to wells of white polystyrene plates in 384-well (Greiner, #784075) or 1536-well format (Greiner, #782075). Compounds were added with top concentration of 2 mM with 11 point, 3-fold dilution series. Enzyme solution (contains 2×DGK enzyme concentration in 1× assay buffer) was added to the plate in 2 μL/well volume, followed by 2 μL/well of substrate solution (contains 2× concentration of ATP and DLG substrate in 1× assay buffer). Plates were then centrifuged for 1 min at 1200 RPM and sealed or lidded. For 4 μL reaction volume, test compounds were therefore diluted 100× to final top concentration of 20 μM. After 90 minute incubation, reactions were quenched by addition of 2 μL/well Promega ADP-Glo Reagent, followed by centrifugation and lidding. After 60 min incubation, 2 μL/well Promega Kinase Detection Reagent was added, plates centrifuged, and incubated for 30 min. Plates were then read using Luminescence method on BMG PHERAstar FSX plate reader. Percent inhibition was calculated and IC50s were determined using 4-parameter fit in Genedata Screener. Labcyte Echo acoustic dispenser was used for compound addition, and Formulatrix Tempest liquid handler was used for all reagent dispenses.
(In general: ADP-Glo turns the ADP formed in a reaction into a luminescent signal.)

Test [1] deals with human CD3+ T cells co-cultured with allogenic dendritic cells. The experiment in a line: Allogenic mixed lymphocyte reaction assay, IFNγ by HTRF. Type of test: cell-based. The protocol:
To assess the ability of 4-((2S,5R)-4-((3,3-difluorocyclobutyl)(4-(trifluoromethyl)phenyl)methyl)-2,5-dimethylpiperazin-1-yl)-2-methyl-1-(((S)-tetrahydrofuran-2-yl)methyl)-1H-[1,2,4]triazolo[3,4-b]purine (i.e., Compound 2) to further enhance the T cell effector function induced by checkpoint blockade, the combination effect of Compound 2 and anti-PD-1 reagent (retifanlimab and pembrolizumab) was evaluated in an allogenic mixed lymphocyte reaction assay.
In brief, Human PBMCs were isolated from leukopaks (BioIVT) obtained from healthy donors by the Ficoll-Paque (Cytiva 17144002) cell separation method. Monocyte isolation was performed using the Dynabeads Untouched human monocyte kit (Life Technologies 11350D), and monocytes were cultured in 10% FBS RPMI 1640 treated with 100 ng/mL granulocyte-macrophage colony-stimulating factor (R&D Systems 215-GM/CF) and 50 ng/mL IL-4 (R&D Systems 204-IL/CF) for at least 6 days at 37° C. with 5% CO2 to differentiate into dendritic cells. Pan T cells were isolated using the Dynabeads Untouched human T-cell kit (Life Technologies 11344D) and plated at 1×10^5 cells/well in 100 μL of 10% FBS RPMI 1640 in 96-well, round-bottom plates (Costar 3879). […] After 20 hours of incubation at room temperature, the HTRF signal was measured by the PHERAstar FSX microplate reader (BMG Labtech). […]
For orientation: In TR-FRET formats the signal depends on donor and acceptor labels being close together.

In turn, `Cc1nc2c(N3C[C@@H](C)N(C(c4ccc(C(F)(F)F)cc4)C4CC(F)(F)C4)C[C@@H]3C)nc3nncn3c2n1C[C@@H]1CCCO1` (single isomer, unassigned) [Example 2] had a pIC50 against DGKζ of at least 7.70. For the same molecule, the “production of IFNγ, combination vs single agents” value in test [1] (4 nM Compound 2 plus 0.7 nM pembrolizumab vs anti-PD-1 mAb or Compound 2 single agent, FIG. 5B) is given as “statistically significant higher production of IFNγ”; in test [1] (4 nM Compound 2 plus 0.7 nM retifanlimab vs anti-PD-1 mAb or Compound 2 single agent, FIG. 5A), “statistically significant higher production of IFNγ”.
As to `C[C@@H]1CN(c2nc3nncn3c3c2nnn3C[C@H]2CCCO2)[C@@H](C)CN1C(c1ccc(F)cc1)c1ccc(F)cc1` [Example 1, 4-((2S,5R)-4-(Bis(4-fluorophenyl)methyl)-2,5-dimethylpiperazin-1-yl)-1-(((R)-tetrahydrofuran-2-yl)methyl)-1H-[1,2,3]triazolo[4,5-e][1,2,4]triazolo[4,3-a]pyrimidine], at DGKζ, the pIC50 is at least 7.70.
